The values that follow come from patent publication US8716242B2, “β-hairpin peptidomimetics” (priority 2009, dated 2014).

Numbered stars: 1 amine (or outer) side, 2 acyl side, 3 side chain; on linkers, the order of the positions; unused ones are H or OH. Bridge positions count the residues as written; N and C are the ends. Square brackets hold non-standard residues; d marks the D form. Side chains are listed from the residue outwards. Peptide text beside a SMILES is read from it. * marks the point of attachment. γGlu = O=C(O)[C@H](CCC(=O)[*:2])N[*:1]; Palmitoyl = CCCCCCCCCCCCCCCC(=O)*; Myristoyl = CCCCCCCCCCCCCC(=O)*; Lauroyl = CCCCCCCCCCCC(=O)*; Dab = NCC[C@H](N)C(=O)O

The target of one data set is T1, human CXCR4 (Homo sapiens, UniProt P61073).
T1 construct: expressed in transfected cells; host or cells: mouse pre-B cell line 300-19
The experiment in a line: Ca2+-assay: CXCR4-antagonizing activity (SDF-1 induced calcium mobilization). In kind it is cell-based. The conditions noted are these: mouse pre-B cell line 300-19 transfected with human CXCR4; SDF-1 induced Ca2+ mobilization; read-out: IC50% [nM] ± SD, CXCR4 receptor. The method, boiled down:
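Mouse pre-B 300-19 cells stably expressing human CXCR4, loaded with Calcium 4 dye in HBSS/20 mM HEPES pH 7.4/0.1% BSA for 1 h at RT. Peptides added before SDF-1; fluorescence (ex 485/em 525 nm) followed for 90 s. IC50 from four-parameter logistic fit of % maximal SDF-1 response.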
For orientation: Calcium assays in cells follow changes in intracellular calcium, usually with a dye or a luminescent sensor.

The nature of data set [1]: Cytotoxicity, MTT reduction assay, HELA cells. It counts as cell-based. The following applies: human, HELA cells (Acc57), 12.5-50 μM. The method, boiled down:
(§1)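 HELA (4000/well) and COS-7 (3400/well) cells were grown 24 h, then exposed 48 h at 37° C to peptides at 12.5, 25 and 50 μM in triplicate. MTT reduction read at 595 nm; growth % relative to time-zero, and GI50 interpolated by trend line.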
(In general: Tetrazolium assays rely on reduction of a dye to a coloured formazan, in cell work by metabolically active cells.)

Data set [2] in a line: Cytotoxicity, MTT reduction assay, COS-7 cells. It counts as cell-based. The conditions noted are these: African green monkey, COS-7 cells (CRL-1651), 12.5-50 μM. The method, boiled down:
as §1

A short description of data set [3]: Plasma stability in human plasma. In kind it is in vitro ADME. The following applies: human plasma, 37° C.; for remaining at 24 h, 10 μM: 1440 min, read-out: human pl. cpd left at 1440 min. The method, boiled down: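 Peptides (1 mM DMSO/H2O stock) were spiked into human or mouse plasma in triplicate and incubated at 37 °C, sampling from 0 to 1440 min. Samples were quenched in formic acid/acetonitrile and analysed by LC/MS MRM. Remaining percent of t=0 was calculated and T1/2 derived by trend fitting.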

Data set [4] has as its system human red blood cells (hRBC). Nature of the data set: Hemolysis of human red blood cells. The following applies: 20% hRBC, 1 h, 37° C. It counts as cell-based. The method, boiled down: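 Washed fresh human erythrocytes (20% v/v, ~0.9×10^9 cells/mL final) incubated with compound at 100 μM for 1 h at 37 °C with shaking. Supernatant OD540 read; % hemolysis expressed relative to 2.5% Triton X-100 lysis (100%), with PBS/0.001% acetic acid as 0%.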

By IC50 is commonly meant the concentration that gives 50% inhibition. As a reminder, the GI50 is the concentration at which growth is held to half of that of the control. Low values mean more potent growth inhibition, high ones less potent growth inhibition.

T1 sequence (P61073 whole entry): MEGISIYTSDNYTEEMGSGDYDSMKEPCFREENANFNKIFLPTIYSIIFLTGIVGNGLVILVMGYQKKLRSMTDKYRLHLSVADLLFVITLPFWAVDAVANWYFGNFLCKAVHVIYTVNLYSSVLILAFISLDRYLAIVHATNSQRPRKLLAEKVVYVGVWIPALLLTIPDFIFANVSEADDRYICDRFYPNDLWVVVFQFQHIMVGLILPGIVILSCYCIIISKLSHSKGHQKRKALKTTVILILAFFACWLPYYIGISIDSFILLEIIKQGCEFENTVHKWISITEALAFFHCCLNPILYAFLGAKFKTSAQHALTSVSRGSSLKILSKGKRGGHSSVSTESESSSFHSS

Regarding `CCCCCCCCCCCCCCCC(=O)N[C@@H](CCC(=O)NCCCC[C@@H]1NC(=O)[C@H](Cc2ccc(O)cc2)NC(=O)[C@@H]2CSSC[C@H](NC(=O)[C@H](Cc3ccc(O)cc3)NC(=O)[C@H](Cc3c[nH]cn3)NC(=O)[C@H](Cc3ccc(O)cc3)NC(=O)[C@@H]3CCCN3C(=O)[C@H]3CCCN3C(=O)[C@H](CCCCN)NC1=O)C(=O)N[C@@H](CO)C(=O)N[C@@H](C)C(=O)N1CCC[C@@H]1C(=O)N[C@@H](CCN)C(=O)N[C@@H](CCCNC(=N)N)C(=O)N[C@@H](Cc1ccc(O)cc1)C(=O)N2)C(=O)O` [Ex. 29] (cyclo(YHYCSA[dP][Dab]RYCYK([γGlu-Palmitoyl])K[dP]P); disulfide 4-11), the IC50 on human CXCR4 is 1.9 ± 0.8 nM. The concentration for 50% growth inhibition (GI50) at 48 h in data set [1] was over 47 µM; in data set [2] it was over 50 µM. Also, the remaining at 24 h, 10 μM in data set [3] worked out at 74%. The “human pl. T1/2” value in data set [3] (up to 1440 min) was found to be 1440 min. Besides, the “Hemolysis at 100 μM” value in data set [4] was found to be 5.4%.
As to `CCCCCCCCCCCC(=O)N[C@@H](CCC(=O)NCCCC[C@@H]1NC(=O)[C@H](Cc2ccc(O)cc2)NC(=O)[C@@H]2CSSC[C@H](NC(=O)[C@H](Cc3ccc(O)cc3)NC(=O)[C@H](Cc3c[nH]cn3)NC(=O)[C@H](Cc3ccc(O)cc3)NC(=O)[C@@H]3CCCN3C(=O)[C@H]3CCCN3C(=O)[C@H](CCCCN)NC1=O)C(=O)N[C@@H](CO)C(=O)N[C@@H](C)C(=O)N1CCC[C@@H]1C(=O)N[C@@H](CCN)C(=O)N[C@@H](CCCNC(=N)N)C(=O)N[C@@H](Cc1ccc(O)cc1)C(=O)N2)C(=O)O` [Ex. 25] (cyclo(YHYCSA[dP][Dab]RYCYK([γGlu-Lauroyl])K[dP]P); disulfide 4-11), the IC50 on human CXCR4 came to 3.5 ± 0.1 nM. In addition, the GI50 at 48 h in data set [1] was over 43 µM; in data set [2], over 50 µM. In addition, the remaining at 24 h, 10 μM in data set [3] was 78%. Also, the “human pl. T1/2” value in data set [3] (up to 1440 min) worked out at 1440 min. Further, the “Hemolysis at 100 μM” value in data set [4] worked out at 1.0%.
For the compound `CCCCCCCCCCCC(=O)N[C@@H](CCC(=O)NCCCC[C@@H]1NC(=O)[C@H](Cc2ccc(O)cc2)NC(=O)[C@@H]2CSSC[C@H](NC(=O)[C@H](C)NC(=O)[C@H](Cc3c[nH]cn3)NC(=O)[C@H](Cc3ccc(O)cc3)NC(=O)[C@@H]3CCCN3C(=O)[C@H]3CCCN3C(=O)[C@H](CCCCN)NC1=O)C(=O)N[C@@H](CCCNC(=N)N)C(=O)N[C@@H](C)C(=O)N1CCC[C@@H]1C(=O)N[C@@H](CCN)C(=O)N[C@@H](CCCNC(=N)N)C(=O)N[C@@H](Cc1ccc(O)cc1)C(=O)N2)C(=O)O` [Ex. 26] (cyclo(YHACRA[dP][Dab]RYCYK([γGlu-Lauroyl])K[dP]P); disulfide 4-11), the IC50 on human CXCR4 amounted to 2.4 ± 0.5 nM. Besides, the GI50 at 48 h in data set [1] and in data set [2] was over 50 µM throughout. Also, in data set [3], the remaining at 24 h, 10 μM came to 82%. Besides, in data set [3] (up to 1440 min), the “human pl. T1/2” value is on record as 1440 min. Further, in data set [4], the “Hemolysis at 100 μM” value is reported as 1.2%.
For the compound `CCCCCCCCCCCCCCCC(=O)NCCCC[C@@H]1NC(=O)[C@H](Cc2ccc(O)cc2)NC(=O)[C@@H]2CSSC[C@H](NC(=O)[C@H](Cc3ccc(O)cc3)NC(=O)[C@H](Cc3c[nH]cn3)NC(=O)[C@H](Cc3ccc(O)cc3)NC(=O)[C@@H]3CCCN3C(=O)[C@H]3CCCN3C(=O)[C@H](CCCCN)NC1=O)C(=O)N[C@@H](CO)C(=O)N[C@@H](C)C(=O)N1CCC[C@@H]1C(=O)N[C@@H](CCN)C(=O)N[C@@H](CCCNC(=N)N)C(=O)N[C@@H](Cc1ccc(O)cc1)C(=O)N2` [Ex. 20] (cyclo(YHYCSA[dP][Dab]RYCYK(Palmitoyl)K[dP]P); disulfide 4-11), the IC50 at human CXCR4 is 4 ± 1.8 nM. In addition, the GI50 at 48 h is over 31 µM in data set [1] and over 50 µM in data set [2]. The remaining at 24 h, 10 μM in data set [3] amounted to 54%. The “human pl. T1/2” value in data set [3] (up to 1440 min) was determined as 1440 min. For the same compound, in data set [4], the “Hemolysis at 100 μM” value came out at 9.1%.
For `CCCCCCCCCCCCCC(=O)N[C@@H](CCC(=O)NCCCC[C@@H]1NC(=O)[C@H](Cc2ccc(O)cc2)NC(=O)[C@@H]2CSSC[C@H](NC(=O)[C@H](Cc3ccc(O)cc3)NC(=O)[C@H](Cc3c[nH]cn3)NC(=O)[C@H](Cc3ccc(O)cc3)NC(=O)[C@@H]3CCCN3C(=O)[C@H]3CCCN3C(=O)[C@H](CCCCN)NC1=O)C(=O)N[C@@H](CO)C(=O)N[C@@H](C)C(=O)N1CCC[C@@H]1C(=O)N[C@@H](CCN)C(=O)N[C@@H](CCCNC(=N)N)C(=O)N[C@@H](Cc1ccc(O)cc1)C(=O)N2)C(=O)O` [Ex. 28] (cyclo(YHYCSA[dP][Dab]RYCYK([γGlu-Myristoyl])K[dP]P); disulfide 4-11), the IC50 on human CXCR4 was determined as 2.1 ± 0.1 nM. Also, the GI50 at 48 h is over 39 µM in data set [1] and over 50 µM in data set [2]. For the same compound, the remaining at 24 h, 10 μM in data set [3] was found to be 80%. The half-life at 10 μM in data set [3] (up to 1440 min, read-out: human pl. T1/2) stood at 1150 min. In addition, in data set [4], the “Hemolysis at 100 μM” value is 1.9%.
Turning to `CCCCCCCCCCCC(=O)NCCCC[C@@H]1NC(=O)[C@H](Cc2ccc(O)cc2)NC(=O)[C@@H]2CSSC[C@H](NC(=O)[C@H](C)NC(=O)[C@H](Cc3c[nH]cn3)NC(=O)[C@H](Cc3ccc(O)cc3)NC(=O)[C@@H]3CCCN3C(=O)[C@H]3CCCN3C(=O)[C@H](CCCCN)NC1=O)C(=O)N[C@@H](CCCNC(=N)N)C(=O)N[C@@H](C)C(=O)N1CCC[C@@H]1C(=O)N[C@@H](CCN)C(=O)N[C@@H](CCCNC(=N)N)C(=O)N[C@@H](Cc1ccc(O)cc1)C(=O)N2` [Ex. 17] (cyclo(YHACRA[dP][Dab]RYCYK(Lauroyl)K[dP]P); disulfide 4-11), the IC50 at human CXCR4 was 2.8 ± 0.4 nM. Also, the GI50 at 48 h was over 44 µM in data set [1] and over 50 µM in data set [2]. For the same compound, the remaining at 24 h, 10 μM in data set [3] is 65%. Further, the “human pl. T1/2” value in data set [3] (up to 1440 min) came to 1440 min. Moreover, the “Hemolysis at 100 μM” value in data set [4] came out at 4.3%.
